Results reported in patent US20220142985A1, “AGENTS FOR TREATMENT OF ALCOHOL USE DISORDER” (SERVICIO ANDALUZ DE SALUD, priority 2018, published 2022).
Each block holds one molecule with its values, some of them ahead of it.

How the values were obtained:
[1] = test system: adult male Wistar rats; test: Alcohol self-administration model; assay type: in vivo, rat; details: for EC50 for inhibition of alcohol self-administration: acute administration 30 minutes before the session, 10% alcohol, non-linear regression, IC = confidence interval
Experimental: (§1) For the alcohol self-administration studies, 48 adult male Wistar rats (8 per group) (Harlan, Barcelona, Spain) weighing 375-425 g at the start of the experiments were individually housed in a 12-hour light/dark cycle (turned off at 12:00 p.m.) in a room at constant temperature (23±1° C.). Standard food and tap water were available ad libitum in the house cage. The animals were allowed to acclimate to the housing facilities for 2 weeks before the beginning of the alcohol self-administration protocol. For oxycodone self-administration, male Long-Evans rats (275-325 g) (Charles-River Laboratories, Raleigh, N.C.) were used throughout this study. Upon arrival, they were individually housed in a facility for animals under an inverted 12-h light/dark cycle (light turned on at 7:00 p.m.) with free access to food and water. They were allowed to acclimate to the new environment for at least 7 days before the start of the study. For alcohol consumption in the two-bottle choice paradigm, male Wistar rats weighing 250 g at the start of the experiments, or genetically selected Marchigian Sardinian (msP) male rats that prefer alcohol were used.
Animals were trained for the alcohol self-administration as previously described (Cippitelli et al., 2005. Eur J Neurosci. 21 (8):2243-51), in the room (Letica, model LE 850, Panlab, Barcelona, Spain) enclosed in sound-attenuating cages and equipped with an exhaust fan. The chambers were equipped with two retractable levers, one located on each side of a water pan.
The active lever side is equally distributed between sessions to prevent the development of location preferences. […] All the operant alcohol sessions lasted for 30 minutes per day 5 d/week (Monday to Friday). The amount of responses and the immersion presentations were automatically recorded by the computer software. The animals were weighed daily before the alcohol self-administration sessions. Training was carried out using a modification of the conventional saccharin fading method (Samson et al., 1999) described in Alen et al., 2009 (Nicotine Tob Res. 11 (11): 1304-11). For the first 3 days of training, the animals received a 0.2% saccharin solution in the dipper to facilitate the acquisition of the lever pressure level. After that point, the following sequence in a fixed ratio 1 was used: 0.16% saccharin and 2% alcohol for three sessions, 0.12% saccharin and 4% alcohol for three sessions, 0.08% saccharin and 6% alcohol for four sessions, 0.04% saccharin and 8% alcohol for four sessions, 0.02% saccharin plus 10% alcohol, and finally 10% alcohol alone for the remaining sessions. The first investigation was relatively similar, followed by a period of at least 6 weeks with access to alcohol (10% w/v). ciglitazone (0.01, 1.5, and 20 mg/kg), OEA (0.1, 1.5, and 20 mg/kg), WY 14643 (0.1, 5, 20, and 40) mg/kg), rimonabant (0.03, 0.3, 1, and 3 mg/kg), OLHHA (0.01, 0.1, 1, and 5 mg/kg), and NF 10-360 (1 mg/kg). The medicinal products were injected 30 minutes before the self-administration session. The animals were then left for a period of 24 hours, and then 30 minutes daily. The EtOH self-administration sessions were resumed and monitored.
(§2) GraphPad Prism v5.04 (GraphPad Software, San Diego, Calif., USA). Data was represented by means±SEM. EC50 values for the inhibition of alcohol, cocaine, or oxycodone self-administration were calculated using built-in non-linear regression equations. Supplementation with alcohol and the analysis of the effects of variability (ANOVA) with repeated measures (factors: treatment and treatment). Plasma metabolic parameters, cytokines, and liver mRNA resulting from the circulation expression were analyzed by means of a two-way ANOVA (factors: treatment (vehicle/OLHHA) and access to beverage ([…]/water)), and a multiple post hoc comparison test (Bonferroni) was performed. The p-value less than 0.05 was considered to be statistically significant.

[2] = test system: Wistar rats; test: Alcohol consumption in the two-bottle choice model (Wistar rats, 10% alcohol); assay type: in vivo, rat; details: 1 mg/kg, P<0.05, FIG. 2A
Experimental: as §1
Voluntary alcohol intake was evaluated in a two-bottle choice test, as previously described [Stopponi et al., 2011. […] Intakes were recorded daily 2, 8, and 24 hours after the administration of OLHHA. Alcohol, water, and food intake were monitored daily. […]

[3] = test system: liver mRNA of lipogenic enzymes, cytochrome c oxidase 4 and PPARα; test: Liver mRNA expression by RT qPCR after repeated OLHHA in msP rats; assay type: in vivo, rat; details: 5 mg/kg daily
Experimental: (§3) Voluntary alcohol intake was evaluated in a two-bottle choice test, as previously described [Stopponi et al., 2011. Biol Psychiatry. 69(7):642-]. Wistar rats or rats selected due to their alcohol preference (msP) were trained to drink water, 10% alcohol (v/v) (Wistar), or 20% alcohol (msP) for 24 hours per day until reaching a stable alcohol intake baseline. At this point, the rats were divided into different groups (n=9-10/group) to be treated with vehicle, NF 10-360 (0 or 1 mg/kg), or OLHHA (5 mg/kg). In the case of msP rats, treatment with OLHHA continued for 14 consecutive days, and the drug or vehicle was administered once a day before the start of the dark period of the light/dark cycle. Intakes were recorded daily 2, 8, and 24 hours after the administration of OLHHA. Alcohol, water, and food intake were monitored daily. The animals were sacrificed on day 14, 2 hours after the last administration of OLHHA.
(§4) The rats were sacrificed 2 hours after the last dose. Treated animals and animals treated with OLHHA were anesthetized with sodium pentobarbital (50 mg kg-1, i.p.), and blood and liver samples were taken. The blood was centrifuged (2100 g for 8 min, 4° C.) and the plasma was kept for later analysis. The liver samples were rapidly frozen in liquid N^2 and stored at −80° C. until analysis.
Real-time quantitative polymerase chain reaction (RT qPCR) was used to measure the relative quantification of the mRNA levels of the enzymes and proteins related to the oxidation of hand lipogenic fatty acids, as described in previous studies with OLHHA. [Decara et al., 2015. Dis Model Mech. 8(10): 1213-25]. Total mRNA was isolated using the Trizol® method according to the manufacturer's instructions (Gibco BRL Life Technologies, Baltimore, Md., USA). Resulting cDNA was used as templates for RT qPCR with an iCycler system (BioRad) using the Quanti-Test SYBR Green PCR kit (Qiagen, Hilden, Germany). The […] were provided by Sigma-Proligo (Proligo France SAS, Paris, France). Quantification was performed according to the following criteria [Decara et al., 2015. Dis Model Mech. 8(10): 1213-25]. The absolute values of each sample were normalized to observe β-actin mRNA (constitutive gene), which was used as a standard reference.
as §2, with “Supplementation with alcohol and the analysis of the effects of variability (ANOVA) with repeated measures (factors: treatment and treatment).” left out, “The p-value less than 0.05 was considered to be statistically significant.” left out

[4] = test system: Long-Evans rats; test: Oxycodone self-administration; assay type: in vivo, rat; details: FIG. 3G
Experimental: as §1, with “used. […]” for “used.”
Oxycodone self-administration is carried out in an operant chamber with two response levers and a 15 W house light (Med Associates Inc., Georgia, Vt., USA). […] The response of each animal has been recorded throughout the entire training and testing process. […]

[5] = Plasma metabolite and cytokine measurements after repeated OLHHA in msP rats; assay type: in vivo; details: 5 mg/kg daily
Experimental: as §3, §4
The following metabolites, metabolic hormones, and cytokines were measured in plasma: metabolites glucose, triglycerides, cholesterol, uric acid, urea, creatinine, aspartate transaminase (GOT), alanine transaminase (GPT), interleukin-6, tumor necrosis factor α (TNF-a). They were analyzed in an automatic Hitachi 737 analyzer (Hitachi, Tokyo, Japan) according to the manufacturer's instructions. Levels of leptin, IL-6, and TNF-α were measured using commercial rat enzyme-linked immunosorbent assay kits (Abcam, Cambridge, United Kingdom).
as §2

[6] = test system: Marchigian Sardinian (msP) male rats; test: Alcohol consumption in the two-bottle choice model (msP rats that prefer alcohol, 20% alcohol); assay type: in vivo, rat; details: 5 mg/kg daily
Experimental: as §1, §3

- EC50 for inhibition of alcohol self-administration [1]: 5.9 (IC=2.7 to 15.7) mg/kg
Structure (SMILES): CC1(COc2ccc(CC3SC(=O)NC3=O)cc2)CCCCC1 (stereo not drawn) [ciglitazone]

Structure (SMILES): CCCCCNC(=O)c1ccc(NC(=O)c2cccc(CN3C(=O)OC[C@H]3Cc3ccccc3)c2)cc1 [NF 10-360, 3-((4-benzyl-2-oxooxazolidin-3-yl)methyl)-N-(4-(pentylcarbamoyl)phenyl)benzamide]
- operant responses to a 10% ethanol solution (alcohol self-administration) ([1]; 1 mg/kg, P<0.01, FIG. 2B): reduced operant responses
- voluntary alcohol intake [2]: reduced alcohol intake

Structure (SMILES): CCCCCCCC/C=C\CCCCCCCC(=O)NC(C)Cc1ccc(O)c(O)c1 (stereo not drawn) [OLHHA, N-[1-(3,4-dihydroxyphenyl)propan-2-yl]oleamide]
- alcohol self-administration tested 24 hours after administration ([1]; 24 hours after administration, FIG. 3B): absence of effects
- EC50 for inhibition of alcohol self-administration [1]: 0.2 mg/kg
- expression of mRNA of Fasn in liver ([3]; P<0.001, FIG. 4M): inhibited
- expression of PPAR receptor in liver ([3]; P<0.001, FIG. 4O): increased
- expression of mRNA of SCD1 in liver ([3]; P<0.01): inhibited
- expression of cytochrome c oxidase 4 in liver ([3]; P<0.01, FIG. 4N): increased
- maximum inhibition of oxycodone self-administration [4]: 45 % of the control responses
- EC50 for reduction of oxycodone self-administration ([4]; non-linear regression, IC = confidence interval): 11.3 mg/kg
- toxicity: creatinine ([5]; msP rats, FIG. 4F): no impact
- inflammation: plasma concentrations of IL-6 ([5]; msP rats, FIG. 4I): no effect
- inflammation: plasma concentrations of TNF ([5]; msP rats, FIG. 4J): no effect
- toxicity: transaminases ([5]; msP rats, FIGS. 4G and 4H): no impact
- circulating triglycerides ([5]; msP rats, P<0.001, FIG. 4B): reduced
- circulating cholesterol ([5]; msP rats, P<0.001, FIG. 4C): reduced
- circulating uric acid ([5]; msP rats, P<0.01, FIG. 4D): reduced
- glucose levels ([5]; rats exposed to alcohol, P<0.02, FIG. 4A): slightly reducing
- total alcohol intake recorded throughout treatment ([6]; 14 days, P<0.05, FIG. 3F): reduced significantly
- alcohol intake 2 hours after injection ([6]; P<0.0001, FIG. 3C): reduced alcohol intake
- alcohol intake 8 h after administration ([6]; P<0.001, FIG. 3D): also observed
- alcohol intake after 24 h ([6]; P=0.047, FIG. 3E): virtually disappeared

- EC50 for inhibition of alcohol self-administration [1]: 6.5 (IC=3.2 to 13.2) mg/kg
Structure (SMILES): CCCCCCCC/C=C\CCCCCCCC(=O)NCCO [OEA, oleoylethanolamide]

- EC50 for inhibition of alcohol self-administration [1]: 0.5 (IC=0.5 to 1.1) mg/kg
Structure (SMILES): Cc1c(C(=O)NN2CCCCC2)nn(-c2ccc(Cl)cc2Cl)c1-c1ccc(Cl)cc1 [Rimonabant, rimonabant]
- maximum inhibition of alcohol self-administration (rank among reference ligands) ([1]; reference ligands, FIG. 1): achieved maximum inhibition

- EC50 for inhibition of alcohol self-administration [1]: 23.6 (IC=11.3 to 60.9) mg/kg
Structure (SMILES): Cc1cccc(Nc2cc(Cl)nc(SCC(=O)O)n2)c1C [WY14643, pirinixic acid]
